In patent US8946142B2, “Beta-arrestin effectors and compositions and methods of use thereof” (Trevena, Inc., priority 2012, dated 2015):
Where a SMILES comes first, the peptide text is derived from it. [ ]: non-standard residue; d: D form. The star is where a group is joined. Ac6c = NC1(C(=O)O)CCCCC1; Aib = CC(C)(N)C(=O)O; NHiPr = CC(C)N*; Sar = CNCC(=O)O

Key:
Assay type in all cases: cell-based
[1] = target: T1, rat AT1aR (Rattus norvegicus, UniProt P25095); assay: IP1 accumulation assay (IP1 G-protein assay), rat AT1aR; settings: for Emax: read-out: Span (relative to hAngII)
T1 sequence (P25095 1-359): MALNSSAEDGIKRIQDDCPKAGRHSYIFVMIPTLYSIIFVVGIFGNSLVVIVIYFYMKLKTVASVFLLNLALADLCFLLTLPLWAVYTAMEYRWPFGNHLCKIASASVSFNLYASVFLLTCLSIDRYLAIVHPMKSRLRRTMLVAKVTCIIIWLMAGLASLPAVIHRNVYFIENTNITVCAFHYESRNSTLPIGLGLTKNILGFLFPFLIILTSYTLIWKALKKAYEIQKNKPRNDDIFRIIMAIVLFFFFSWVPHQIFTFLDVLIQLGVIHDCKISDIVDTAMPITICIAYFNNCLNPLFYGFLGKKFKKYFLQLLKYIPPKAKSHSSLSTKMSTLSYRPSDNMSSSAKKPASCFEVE
Experimental: (§1) A secondary measure of G protein coupling efficacy was also performed. IP3 is generated by activation of phospholipase C by Gα-q. IP3 is degraded to IP1, which can be forced to accumulate in cells by blocking degradation with lithium chloride. Thus we measured accumulation of IP1 to determine ligand efficacy for G protein activation.
(§2) IP1 accumulation generated by human and rat angiotensin 2 type 1 receptor (human AT1R and rat AT1aR, respectively) was measured with IP-One Tb kits purchased from Cisbio and used per the manufacturer's instructions. Clonal stably transfected cell lines expressing human AT1TR or rat AT1aR were used for all experiments.
(§3) For assays, 4,000-8,000 cells were seeded per well in 384-well small-volume microplates “HiBase” small-volume plate in volumes of 20 uL and allowed to grow overnight at 37° C. in 5% CO2. Cell growth media was then replaced with stimulation buffer supplied by Cisbio containing 50 mM lithium chloride. […] For agonist detection, peptides were then further diluted in stimulation buffer to add peptide to the cells to reach final concentrations ranging from 100 uM to 1 pM. Following addition of peptides, cells were incubated at 37° C. in 5% CO2 for 30 minutes and then lysed with 4 uL of pre-mixed HTRF IP-One reagents diluted per manufacturer's instructions (Cisbio). Microplates were incubated for 60-90 minutes at room temperature and then time-resolved fluorescence intensities were measured using a PHERAstar Plus microplate reader from BMG Labtech. IP1 accumulation was measured as change in ratio of time-resolved fluorescent intensities measured at 665 nm and 620 nm.

[2] = target: T1, rat AT1aR; assay: beta-arrestin2 recruitment assay (PathHunter), rat AT1aR; settings: for Emax: 1 h, read-out: Span (relative to hAngII)
Experimental: (§4) The proximal event in β-arrestin function mediated by GPCRs is recruitment to receptors following ligand binding and receptor phosphorylation by GRK's. Thus, the measure of β-arrestin recruitment was used to determine ligand efficacy for β-arrestin function.
(§5) B-arrestin-2 recruitment to the human and rat angiotensin 2 type 1 receptor (human AT1R and rat AT1aR, respectively) was measured with the PathHunter™ μl-arrestin assay (DiscoveRx Corporation, Fremont Calif.). Cells, plasmid(s), and detection reagent(s) were purchased from DiscoveRx, and assays were performed per manufacturer's instructions. Human AT1R and rat AT1aR were cloned into the pCMV-ProLink vector, verified by sequencing, and transfected into PathHunter β-arrestin HEK293 cells. Stably transfected clonal cell lines were selected with Hygromycin and G418. These clonal cell lines were used for all experiments.
(§6) For assays, 4,000-8,000 cells were seeded per well in 384-well microplates “HiBase” small-volume plate in volumes of 20 uL and grown overnight in the incubator (37° C., 5% CO2, saturated humidity). Peptides were dissolved in DMSO to a concentration of 10 mM. Peptides were then further diluted in assay buffer (Hank's balanced salt solution with 20 mM HEPES) to add peptide to the cells to reach final concentrations ranging from 100 μM to 1 pM. Cells were then incubated for 60 minutes at 37° C. in 5% CO2, followed by addition of 2 μL of PathHunter Detection Reagent to each well. The microplates were then incubated at room temperature for 60 minutes, and then luminescence was measured using a PHERAstar Plus microplate reader from BMG Labtech. B-arrestin-2 recruitment to receptors was measured as relative luminescence intensity expressed in arbitrary units.

[3] = target: T2, human AT1R (Homo sapiens, UniProt P30556); assay: IP1 accumulation assay (IP1 G-protein assay), human AT1R; settings: for Emax: read-out: Span (relative to hAngII)
T2 sequence (P30556 1-359): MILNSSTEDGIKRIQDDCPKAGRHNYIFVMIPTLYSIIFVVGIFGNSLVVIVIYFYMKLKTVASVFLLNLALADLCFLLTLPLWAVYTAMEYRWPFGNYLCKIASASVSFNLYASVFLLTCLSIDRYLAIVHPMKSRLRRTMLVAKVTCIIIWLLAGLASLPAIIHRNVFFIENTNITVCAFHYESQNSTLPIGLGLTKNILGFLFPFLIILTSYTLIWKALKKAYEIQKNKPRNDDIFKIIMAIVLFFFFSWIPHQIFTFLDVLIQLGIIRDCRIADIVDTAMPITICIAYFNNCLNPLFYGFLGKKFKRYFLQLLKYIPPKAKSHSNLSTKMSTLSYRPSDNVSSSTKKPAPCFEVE
Experimental: as §1, §2, §3

[4] = target: T2, human AT1R; assay: beta-arrestin2 recruitment assay (PathHunter), human AT1R; settings: for Emax: 1 h, read-out: Span (relative to hAngII)
Experimental: as §4, §5, §6

| SMILES | EC50 ([1]; read-out: EC50) | Emax [1] | EC50 ([1]; read-out: pEC50 (converted)) | Emax [2] | EC50 ([2]; read-out: EC50) | EC50 ([2]; read-out: pEC50 (converted)) | EC50 ([3]; read-out: EC50) | EC50 ([3]; read-out: pEC50 (converted)) | Emax [4] | EC50 ([4]; read-out: EC50) | EC50 ([4]; read-out: pEC50 (converted)) | Emax [3] | EC50 (nM) [2] | pEC50 [2] |
| --- | --- | --- | --- | --- | --- | --- | --- | --- | --- | --- | --- | --- | --- | --- |
| CNCC(=O)N[C@@H](CCCNC(=N)N)C(=O)N[C@H](C(=O)N[C@@H](Cc1ccc(O)cc1)C(=O)N1CCC[C@H]1C(=O)N[C@@H](Cc1c[nH]cn1)C(=O)N1CCC[C@H]1C(=O)N[C@@H](C)C(=O)O)C(C)C [SEQ ID NO: 1, Sar-Arg-Val-Tyr-Pro-His-Pro-Ala] (H-[Sar]RVYPHPA-OH) | > 0.6 nM | < 104% | > 0.631 nM | < 105% | > 3.2 nM | > 3.16 nM | > 10000 nM | > 0.631 nM | < 101% | > 3.2 nM | > 3.16 nM |  |  |  |
| CNCC(=O)N[C@@H](CCCNC(=N)N)C(=O)N[C@H](C(=O)N[C@@H](Cc1ccc(O)cc1)C(=O)NC1(C(=O)N[C@@H](Cc2c[nH]cn2)C(=O)N2CCC[C@H]2C(=O)N[C@@H](C)C(=O)O)CCCCC1)C(C)C [SEQ ID NO: 2, Sar-Arg-Val-Tyr-cyHex-His-Pro-Ala] | > 0.6 nM |  |  | < 105% | > 3.2 nM |  | 10000 nM | > 0.631 nM | < 101% | > 3.2 nM |  | < 103% |  |  |
| CNCC(=O)N[C@@H](CCCNC(=N)N)C(=O)N[C@H](C(=O)N[C@@H](Cc1ccc(O)cc1)C(=O)NC1(C(=O)N[C@@H](Cc2c[nH]cn2)C(=O)N2CCC[C@H]2C(=O)N[C@@H](C)C(=O)O)CCCC1)C(C)C [SEQ ID NO: 3, Sar-Arg-Val-Tyr-cyPen-His-Pro-Ala] | > 0.6 nM |  | > 0.631 nM | < 105% | > 3.2 nM | > 3.16 nM | > 10000 nM | > 0.631 nM | < 101% | > 3.2 nM | > 3.16 nM |  |  |  |
| CC[C@H](C)[C@H](NC(=O)[C@@H]1CCCN1C(=O)[C@H](Cc1c[nH]cn1)NC(=O)[C@@H]1CCCN1C(=O)[C@H](Cc1ccc(O)cc1)NC(=O)[C@@H](NC(=O)[C@H](CCCNC(=N)N)NC(=O)CNC)C(C)C)C(=O)O [SEQ ID NO: 4, Sar-Arg-Val-Tyr-Pro-His-Pro-Ile] (H-[Sar]RVYPHPI-OH; N-terminus and C-terminus assumed) |  |  |  | < 105% |  |  |  |  | < 101% |  |  | < 103% |  |  |
| CNCC(=O)N[C@@H](CCCNC(=N)N)C(=O)N[C@H](C(=O)N[C@@H](Cc1ccc(O)cc1)C(=O)N1CCC[C@H]1C(=O)N[C@@H](Cc1c[nH]cn1)C(=O)N1CCC[C@H]1C(=O)N[C@@H](CO)C(=O)O)C(C)C [SEQ ID NO: 8, Sar-Arg-Val-Tyr-Pro-His-Pro-Ser] (H-[Sar]RVYPHPS-OH; N-terminus and C-terminus assumed) |  |  |  | < 105% |  |  |  |  | < 101% |  |  | < 103% |  |  |
| CNCC(=O)N[C@@H](CCCNC(=N)N)C(=O)N[C@H](C(=O)N[C@@H](Cc1ccc(O)cc1)C(=O)NC(C)(C)C(=O)N[C@@H](Cc1c[nH]cn1)C(=O)N1CCC[C@H]1C(=O)N[C@H](C(=O)O)C(C)C)C(C)C [SEQ ID NO: 33, Sar-Arg-Val-Tyr-AA01-His-Pro-Val] (H-[Sar]RVY[Aib]HPV-OH) |  |  |  | < 105% | > 3.2 nM | > 3.16 nM | > 1.3 nM | > 0.631 nM | < 101% | > 3.2 nM | > 3.16 nM | < 103% |  |  |
| CNCC(=O)N[C@@H](CCCNC(=N)N)C(=O)N[C@H](C(=O)N[C@@H](Cc1ccc(O)cc1)C(=O)NC1(C(=O)N[C@@H](Cc2c[nH]cn2)C(=O)N2CCC[C@H]2C(=O)N[C@@H](Cc2c[nH]cn2)C(=O)O)CCCCC1)C(C)C [SEQ ID NO: 37, Sar-Arg-Val-Tyr-cyHex-His-Pro-His] (H-[Sar]RVY[Ac6c]HPH-OH) | > 0.6 nM | < 104% | > 0.631 nM | < 105% | > 3.2 nM | > 3.16 nM |  |  | < 101% | > 3.2 nM | > 3.16 nM |  |  |  |
| CNCC(=O)N[C@@H](CCCNC(=N)N)C(=O)N[C@H](C(=O)N[C@@H](Cc1ccc(O)cc1)C(=O)NC1(C(=O)N[C@@H](Cc2c[nH]cn2)C(=O)N2CCC[C@H]2C(=O)N[C@@H](CCCNC(=N)N)C(=O)O)CCCCC1)C(C)C [SEQ ID NO: 42, Sar-Arg-Val-Tyr-cyHex-His-Pro-Arg] (H-[Sar]RVY[Ac6c]HPR-OH) |  |  |  | < 105% | > 3.2 nM | > 3.16 nM | > 1.3 nM | > 0.631 nM | < 101% | > 3.2 nM | > 3.16 nM | < 103% |  |  |
| CNCC(=O)N[C@@H](CCCNC(=N)N)C(=O)N[C@H](C(=O)N[C@@H](Cc1ccc(O)cc1)C(=O)NC1(C(=O)N[C@@H](Cc2c[nH]cn2)C(=O)N2CCC[C@H]2C(=O)N[C@@H](CC(=O)O)C(=O)O)CCCCC1)C(C)C [SEQ ID NO: 44, Sar-Arg-Val-Tyr-cyHex-His-Pro-Asp] (H-[Sar]RVY[Ac6c]HPD-OH) | > 0.6 nM | < 104% | > 0.631 nM | < 105% | > 3.2 nM | > 3.16 nM |  |  | < 101% | > 3.2 nM | > 3.16 nM |  |  |  |
| CNCC(=O)N[C@@H](CCSC)C(=O)N[C@H](C(=O)N[C@@H](Cc1ccc(O)cc1)C(=O)NC1(C(=O)N[C@@H](Cc2c[nH]cn2)C(=O)N2CCC[C@H]2C(=O)N[C@@H](C)C(=O)O)CCCCC1)C(C)C [SEQ ID NO: 45, Sar-Met-Val-Tyr-cyHex-His-Pro-Ala] (H-[Sar]MVY[Ac6c]HPA-OH; N-terminus and C-terminus assumed) |  |  |  | < 105% |  |  |  |  | < 101% |  |  | < 103% |  |  |
| CNCC(=O)N[C@@H](CCCNC(=N)N)C(=O)N[C@H](C(=O)N[C@@H](Cc1ccc(O)cc1)C(=O)NC1(C(=O)N[C@@H](Cc2c[nH]cn2)C(=O)N2CCC[C@H]2C(=O)NC(C)C)CCCCC1)C(C)C [SEQ ID NO: 46, Sar-Arg-Val-Tyr-cyHex-His-Pro-NH-i-Pr] (H-[Sar]RVY[Ac6c]HP-NHiPr) |  |  |  | < 105% | > 3.2 nM | > 3.16 nM | > 1.3 nM | > 0.631 nM | < 101% | > 3.2 nM | > 3.16 nM | < 103% |  |  |
| CNCC(=O)N[C@@H](CCCCN)C(=O)N[C@H](C(=O)N[C@@H](Cc1ccc(O)cc1)C(=O)NC1(C(=O)N[C@@H](Cc2c[nH]cn2)C(=O)N2CCC[C@H]2C(=O)N[C@@H](C)C(=O)O)CCCCC1)C(C)C [SEQ ID NO: 51, Sar-Lys-Val-Tyr-cyHex-His-Pro-Ala] (H-[Sar]KVY[Ac6c]HPA-OH) |  |  |  | < 105% | > 3.2 nM | > 3.16 nM | > 1.3 nM | > 0.631 nM | < 101% | > 3.2 nM | > 3.16 nM | < 103% |  |  |
| CCCCc1nc(Cl)c(CO)n1Cc1ccc(-c2ccccc2-c2nn[nH]n2)cc1 [losartan, reference compound] |  | < 104% |  |  |  |  |  |  |  |  |  |  | Inactive | Inactive |
